Legend:
Test in all cases: relative viability (nuclei count vs DMSO), 5 days (fraction); higher = more cells survive
NCI-H2023 = system: NCI-H2023
In short: (§1)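 Relative viability divides the nuclei count in treated wells by that in vehicle wells. Lung cancer cell lines were seeded in 1536-well plates, dosed by pin tool the next day, and fixed and stained after 5 days in one step with final 0.05% Triton X-100, 1% formaldehyde and 1 ug/ml Hoechst. Dosing was a single drug or a fixed anchor-drug dose plus five library-drug doses (not always all listed) in √10 steps, and values are medians of duplicate plates imaged at 4×.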

LXF-289 = system: LXF-289
In short: as §1

NCI-H2347 = system: NCI-H2347
In short: as §1

NCI-H1993 = system: NCI-H1993
In short: as §1

NCI-H1915 = system: NCI-H1915
In short: as §1

SW 1573 = system: SW 1573
In short: as §1

NCI-H661 = system: NCI-H661
In short: as §1

EMC-BAC-2 = system: EMC-BAC-2
In short: as §1

NCI-H647 = system: NCI-H647
In short: as §1

NCI-H1563 = system: NCI-H1563
In short: as §1

NCI-H322M = system: NCI-H322M
In short: as §1

NCI-H727 = system: NCI-H727
In short: as §1

PC-14 = system: PC-14
In short: as §1

SK-LU-1 = system: SK-LU-1
In short: as §1

HOP-62 = system: HOP-62
In short: as §1

NCI-H2126 = system: NCI-H2126
In short: as §1

NCI-H2085 = system: NCI-H2085
In short: as §1

H3255 = system: H3255
In short: as §1

EPLC-272H = system: EPLC-272H
In short: as §1

LCLC-97TM1 = system: LCLC-97TM1
In short: as §1

NCI-H2009 = system: NCI-H2009
In short: as §1

## CC1(C)CCC(c2ccc(Cl)cc2)=C(CN2CCN(c3ccc(C(=O)NS(=O)(=O)c4ccc(N[C@H](CCN5CCOCC5)CSc5ccccc5)c(S(=O)(=O)C(F)(F)F)c4)cc3)CC2)C1 [Navitoclax] + Cc1nc(NC(=O)N2CCC[C@H]2C(N)=O)sc1-c1ccnc(C(C)(C)C(F)(F)F)c1 [Alpelisib] (partner 2 µM)
NCI-H2023; first compound 0.005 µM
  relative viability: 0.581
NCI-H2023; first compound 0.01581 µM
  relative viability: 0.696
NCI-H2023; first compound 0.05 µM
  relative viability: 0.586
NCI-H2023; first compound 0.1581 µM
  relative viability: 0.616
NCI-H2023; first compound 0.5 µM
  relative viability: 0.625
LXF-289; first compound 0.005 µM
  relative viability: 1.02
LXF-289; first compound 0.01581 µM
  relative viability: 1.03
LXF-289; first compound 0.05 µM
  relative viability: 0.921
LXF-289; first compound 0.1581 µM
  relative viability: 1.02
LXF-289; first compound 0.5 µM
  relative viability: 1.08
NCI-H2347; first compound 0.005 µM
  relative viability: 0.997
NCI-H2347; first compound 0.01581 µM
  relative viability: 1.07
NCI-H2347; first compound 0.05 µM
  relative viability: 1.08
NCI-H2347; first compound 0.1581 µM
  relative viability: 0.927
NCI-H2347; first compound 0.5 µM
  relative viability: 1.2
NCI-H1993; first compound 0.005 µM
  relative viability: 0.658
NCI-H1993; first compound 0.01581 µM
  relative viability: 0.732
NCI-H1993; first compound 0.05 µM
  relative viability: 0.682
NCI-H1993; first compound 0.1581 µM
  relative viability: 0.676
NCI-H1993; first compound 0.5 µM
  relative viability: 0.749
NCI-H1915; first compound 0.005 µM
  relative viability: 1.08
NCI-H1915; first compound 0.01581 µM
  relative viability: 1.06
NCI-H1915; first compound 0.05 µM
  relative viability: 1.01
NCI-H1915; first compound 0.1581 µM
  relative viability: 0.94
NCI-H1915; first compound 0.5 µM
  relative viability: 1
SW 1573; first compound 0.005 µM
  relative viability: 0.635
SW 1573; first compound 0.01581 µM
  relative viability: 0.836
SW 1573; first compound 0.05 µM
  relative viability: 0.917
SW 1573; first compound 0.1581 µM
  relative viability: 0.796
SW 1573; first compound 0.5 µM
  relative viability: 0.718
NCI-H661; first compound 0.005 µM
  relative viability: 0.438
NCI-H661; first compound 0.01581 µM
  relative viability: 0.468
NCI-H661; first compound 0.05 µM
  relative viability: 0.479
NCI-H661; first compound 0.1581 µM
  relative viability: 0.465
NCI-H661; first compound 0.5 µM
  relative viability: 0.673
EMC-BAC-2; first compound 0.005 µM
  relative viability: 0.733
EMC-BAC-2; first compound 0.01581 µM
  relative viability: 0.764
EMC-BAC-2; first compound 0.05 µM
  relative viability: 0.745
EMC-BAC-2; first compound 0.1581 µM
  relative viability: 0.69
EMC-BAC-2; first compound 0.5 µM
  relative viability: 0.759
NCI-H647; first compound 0.005 µM
  relative viability: 1.04
NCI-H647; first compound 0.01581 µM
  relative viability: 1.35
NCI-H647; first compound 0.05 µM
  relative viability: 1.48
NCI-H647; first compound 0.1581 µM
  relative viability: 1.14
NCI-H647; first compound 0.5 µM
  relative viability: 0.75
NCI-H1563; first compound 0.005 µM
  relative viability: 0.947
NCI-H1563; first compound 0.01581 µM
  relative viability: 1.03
NCI-H1563; first compound 0.05 µM
  relative viability: 0.989
NCI-H1563; first compound 0.1581 µM
  relative viability: 0.981
NCI-H1563; first compound 0.5 µM
  relative viability: 1.13
NCI-H322M; first compound 0.005 µM
  relative viability: 0.644
NCI-H322M; first compound 0.01581 µM
  relative viability: 0.772
NCI-H322M; first compound 0.05 µM
  relative viability: 0.931
NCI-H322M; first compound 0.1581 µM
  relative viability: 0.791
NCI-H322M; first compound 0.5 µM
  relative viability: 0.591
NCI-H727; first compound 0.005 µM
  relative viability: 0.5
NCI-H727; first compound 0.01581 µM
  relative viability: 0.619
NCI-H727; first compound 0.1581 µM
  relative viability: 0.526
NCI-H727; first compound 0.5 µM
  relative viability: 0.434
PC-14; first compound 0.005 µM
  relative viability: 0.833
PC-14; first compound 0.01581 µM
  relative viability: 1.02
PC-14; first compound 0.05 µM
  relative viability: 0.92
PC-14; first compound 0.1581 µM
  relative viability: 0.926
PC-14; first compound 0.5 µM
  relative viability: 0.904
SK-LU-1; first compound 0.005 µM
  relative viability: 0.979
SK-LU-1; first compound 0.01581 µM
  relative viability: 1.12
SK-LU-1; first compound 0.05 µM
  relative viability: 1.23
SK-LU-1; first compound 0.1581 µM
  relative viability: 0.906
SK-LU-1; first compound 0.5 µM
  relative viability: 0.867
HOP-62; first compound 0.005 µM
  relative viability: 0.781
HOP-62; first compound 0.01581 µM
  relative viability: 1.06
HOP-62; first compound 0.05 µM
  relative viability: 0.869
HOP-62; first compound 0.1581 µM
  relative viability: 0.871
HOP-62; first compound 0.5 µM
  relative viability: 0.785
NCI-H2126; first compound 0.005 µM
  relative viability: 0.7
NCI-H2126; first compound 0.01581 µM
  relative viability: 0.764
NCI-H2126; first compound 0.05 µM
  relative viability: 0.757
NCI-H2126; first compound 0.1581 µM
  relative viability: 0.727
NCI-H2126; first compound 0.5 µM
  relative viability: 0.771
NCI-H2085; first compound 0.005 µM
  relative viability: 0.944
NCI-H2085; first compound 0.01581 µM
  relative viability: 0.996
NCI-H2085; first compound 0.05 µM
  relative viability: 0.881
NCI-H2085; first compound 0.1581 µM
  relative viability: 0.957
NCI-H2085; first compound 0.5 µM
  relative viability: 0.925
H3255; first compound 0.005 µM
  relative viability: 0.635
H3255; first compound 0.01581 µM
  relative viability: 0.745
H3255; first compound 0.05 µM
  relative viability: 0.6
H3255; first compound 0.1581 µM
  relative viability: 0.744
H3255; first compound 0.5 µM
  relative viability: 0.732
EPLC-272H; first compound 0.005 µM
  relative viability: 0.877
EPLC-272H; first compound 0.1581 µM
  relative viability: 0.933
EPLC-272H; first compound 0.5 µM
  relative viability: 0.821
LCLC-97TM1; first compound 0.005 µM
  relative viability: 0.335
LCLC-97TM1; first compound 0.01581 µM
  relative viability: 0.328
LCLC-97TM1; first compound 0.05 µM
  relative viability: 0.241
LCLC-97TM1; first compound 0.1581 µM
  relative viability: 0.228
LCLC-97TM1; first compound 0.5 µM
  relative viability: 0.243
NCI-H2009; first compound 0.005 µM
  relative viability: 1.08
NCI-H2009; first compound 0.01581 µM
  relative viability: 1.16
NCI-H2009; first compound 0.05 µM
  relative viability: 1.15
NCI-H2009; first compound 0.1581 µM
  relative viability: 1.2
NCI-H2009; first compound 0.5 µM
  relative viability: 1.21
